Measured values taken from PubChem BioAssay AID248 (DTP/NCI, 2004).
Inconclusive results and toxic doses are left out. Cut-off read from the data, not from the text of the source: active = T/C of 150% or more; inactive = T/C below 125%.

System: L1210 leukemia ip in BDF1 mice, survival T/C
Experiment: NCI In Vivo Anticancer Drug Screen. Data for tumor model L1210 Leukemia (intraperitoneal) in B6D2F1 (BDF1) mice
Conditions: endpoint: mean survival time, higher = longer survival
In short: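 Mice bearing the transplanted tumor received compound or vehicle. Survival of the treated group was divided by that of the vehicle-treated control group to give the ratio.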

[1] = dose: 100.0 mg/kg/injection, schedule: Q01DX001 (ip), vehicle: carboxymethylcellulose (CMC)
[2] = dose: 200.0 mg/kg/injection, schedule: Q01DX001 (ip), vehicle: carboxymethylcellulose (CMC)
[3] = dose: 100.0 mg/kg/injection, schedule: Q01DX001 (ip), vehicle: Klucel (hydroxypropylcellulose) (HPC)
[4] = dose: 200.0 mg/kg/injection, schedule: Q01DX001 (ip), vehicle: Klucel (hydroxypropylcellulose) (HPC)
[5] = dose: 12.5 mg/kg/injection, schedule: Q01DX009 (ip), vehicle: saline
[6] = dose: 25.0 mg/kg/injection, schedule: Q01DX009 (ip), vehicle: saline
[7] = dose: 100.0 mg/kg/injection, schedule: Q01DX009 (ip), vehicle: Klucel (hydroxypropylcellulose) (HPC)
[8] = dose: 200.0 mg/kg/injection, schedule: Q01DX009 (ip), vehicle: Klucel (hydroxypropylcellulose) (HPC)
[9] = dose: 100.0 mg/kg/injection, schedule: Q01DX009 (ip), vehicle: saline with Tween-80
[10] = dose: 200.0 mg/kg/injection, schedule: Q01DX009 (ip), vehicle: saline with Tween-80

Measured: T/C

CC(=O)CC(=O)Nc1cccc(Br)c1
inactive: dose: 100.0 mg/kg/injection, schedule: Q04DX003 (ip), vehicle: saline with Tween-80 102 % of control | dose: 200.0 mg/kg/injection, schedule: Q04DX003 (ip), vehicle: saline with Tween-80 97 % of control | dose: 400.0 mg/kg/injection, schedule: Q04DX003 (ip), vehicle: saline with Tween-80 97 % of control

S=C(N/N=C\c1ccc2c(c1)OCO2)Nc1ccc2cn[nH]c2c1
inactive: dose: 50.0 mg/kg/injection, schedule: Q01DX001 (ip), vehicle: carboxymethylcellulose (CMC) 97 % of control | [1] 100 % of control | [2] 91 % of control

CC(C)(C)C1=CC(=O)N2CC=CCC2(C#N)C1=O (stereo unspecified)
inactive: dose: 50.0 mg/kg/injection, schedule: Q01DX001 (ip), vehicle: Klucel (hydroxypropylcellulose) (HPC) 99 % of control | [3] 99 % of control | [4] 99 % of control

Cc1cc(C)c(N(CC(=O)O)S(=O)(=O)c2ccccc2)c(C)c1I
inactive: dose: 75.0 mg/kg/injection, schedule: Q04DX003 (ip), vehicle: Klucel (hydroxypropylcellulose) (HPC) 94 % of control

COc1ccc(NC(=O)Nc2cccc(Cl)c2C)cc1
inactive: dose: 100.0 mg/kg/injection, schedule: Q01DX009 (sc), vehicle: olive oil, sesame oil, peanut oil 100 % of control | dose: 100.0 mg/kg/injection, schedule: Q04DX003 (sc), vehicle: olive oil, sesame oil, peanut oil 100 % of control | dose: 200.0 mg/kg/injection, schedule: Q01DX009 (sc), vehicle: olive oil, sesame oil, peanut oil 96 % of control | dose: 200.0 mg/kg/injection, schedule: Q04DX003 (sc), vehicle: olive oil, sesame oil, peanut oil 98 % of control | dose: 400.0 mg/kg/injection, schedule: Q01DX009 (sc), vehicle: olive oil, sesame oil, peanut oil 100 % of control | dose: 400.0 mg/kg/injection, schedule: Q04DX003 (sc), vehicle: olive oil, sesame oil, peanut oil 101 % of control

CCCCCCCCCCCCCCCCOC(=O)C[n+]1cccc(C(N)=O)c1
inactive: dose: 100.0 mg/kg/injection, schedule: Q04DX003 (ip), vehicle: saline 92 % of control | dose: 200.0 mg/kg/injection, schedule: Q04DX003 (ip), vehicle: saline 99 % of control

S=c1[nH]c2cc3ccccc3cc2[nH]1
inactive: dose: 75.0 mg/kg/injection, schedule: Q01DX001 (ip), vehicle: saline 98 % of control | dose: 150.0 mg/kg/injection, schedule: Q01DX001 (ip), vehicle: saline 101 % of control | dose: 300.0 mg/kg/injection, schedule: Q01DX001 (ip), vehicle: saline 92 % of control

O=c1cc(CO)occ1O.O=c1cc(CO)occ1O.[O]=[V]
inactive: dose: 4.0 mg/kg/injection, schedule: Q01DX015 (ip), vehicle: carboxymethylcellulose (CMC) 101 % of control | dose: 8.0 mg/kg/injection, schedule: Q01DX015 (ip), vehicle: carboxymethylcellulose (CMC) 105 % of control | [5] 87 % of control | dose: 12.5 mg/kg/injection, schedule: Q04DX003 (ip), vehicle: saline 92 % of control | dose: 16.0 mg/kg/injection, schedule: Q01DX015 (ip), vehicle: carboxymethylcellulose (CMC) 106 % of control | [6] 92 % of control | dose: 25.0 mg/kg/injection, schedule: Q04DX003 (ip), vehicle: saline 91 % of control | dose: 50.0 mg/kg/injection, schedule: Q04DX003 (ip), vehicle: saline 102 % of control

CCCCCCCCCCCCCCCCN(C)C(=S)c1ccc(Cl)c(Cl)c1
inactive: [3] 100 % of control | dose: 100.0 mg/kg/injection, schedule: Q04DX003 (ip), vehicle: Klucel (hydroxypropylcellulose) (HPC) 100 % of control | [4] 100 % of control | dose: 200.0 mg/kg/injection, schedule: Q04DX003 (ip), vehicle: Klucel (hydroxypropylcellulose) (HPC) 96 % of control | dose: 400.0 mg/kg/injection, schedule: Q01DX001 (ip), vehicle: Klucel (hydroxypropylcellulose) (HPC) 98 % of control | dose: 400.0 mg/kg/injection, schedule: Q04DX003 (ip), vehicle: Klucel (hydroxypropylcellulose) (HPC) 91 % of control

NC(=O)N1C(=O)C=CC1=O
inactive: dose: 50.0 mg/kg/injection, schedule: Q04DX002 (ip), vehicle: Klucel (hydroxypropylcellulose) (HPC) 96 % of control | [7] 105 % of control | dose: 100.0 mg/kg/injection, schedule: Q04DX002 (ip), vehicle: Klucel (hydroxypropylcellulose) (HPC) 100 % of control | [8] 91 % of control

COC(=O)COc1ccc(Cl)cc1Cl
inactive: dose: 100.0 mg/kg/injection, schedule: Q04DX002 (ip), vehicle: saline 100 % of control | dose: 200.0 mg/kg/injection, schedule: Q04DX002 (ip), vehicle: saline 107 % of control | dose: 400.0 mg/kg/injection, schedule: Q04DX002 (ip), vehicle: saline 100 % of control

CNC(=O)N(C)c1cc(N(C)C)nc(OC)n1
inactive: dose: 5.0 mg/kg/injection, schedule: Q01DX009 (ip), vehicle: Klucel (hydroxypropylcellulose) (HPC) 98 % of control | dose: 10.0 mg/kg/injection, schedule: Q01DX009 (ip), vehicle: Klucel (hydroxypropylcellulose) (HPC) 94 % of control | dose: 20.0 mg/kg/injection, schedule: Q01DX009 (ip), vehicle: Klucel (hydroxypropylcellulose) (HPC) 94 % of control

S=C(N/N=C/C=C/c1ccccc1)NC1CC2CC1C1C=CCC21 (stereo unspecified)
inactive: [7] 94 % of control | [8] 117 % of control | dose: 400.0 mg/kg/injection, schedule: Q01DX009 (ip), vehicle: Klucel (hydroxypropylcellulose) (HPC) 88 % of control

Nc1ccc(S(=O)(=O)c2cc(O)c3ccccc3c2O)cc1
inactive: [5] 91 % of control | dose: 12.5 mg/kg/injection, schedule: Q04DX003 (ip), vehicle: Klucel (hydroxypropylcellulose) (HPC) 103 % of control | [6] 91 % of control | dose: 25.0 mg/kg/injection, schedule: Q04DX003 (ip), vehicle: Klucel (hydroxypropylcellulose) (HPC) 102 % of control | dose: 50.0 mg/kg/injection, schedule: Q04DX003 (ip), vehicle: Klucel (hydroxypropylcellulose) (HPC) 92 % of control

CCn1c(COc2cc(C)cc(C)c2)c(COC(=O)c2cccc(Cl)c2)c2ccccc21
inactive: dose: 50.0 mg/kg/injection, schedule: Q01DX009 (ip), vehicle: saline with Tween-80 96 % of control | [9] 86 % of control | [10] 91 % of control

CC/C(C)=C\CC/C(C)=C/COc1cccc(CC)c1
inactive: dose: 100.0 mg/kg/injection, schedule: Q04DX002 (ip), vehicle: saline with Tween-80 100 % of control | dose: 200.0 mg/kg/injection, schedule: Q04DX002 (ip), vehicle: saline with Tween-80 94 % of control | dose: 400.0 mg/kg/injection, schedule: Q04DX002 (ip), vehicle: saline with Tween-80 94 % of control

Cc1cc(=O)cc(C)n1C
inactive: [9] 96 % of control | [10] 100 % of control | dose: 400.0 mg/kg/injection, schedule: Q01DX009 (ip), vehicle: saline with Tween-80 92 % of control

COc1ccc(-c2oc3ccccc3c(=O)c2O)cc1
inactive: dose: 50.0 mg/kg/injection, schedule: Q01DX001 (ip), vehicle: saline 104 % of control | dose: 100.0 mg/kg/injection, schedule: Q01DX001 (ip), vehicle: saline 101 % of control | dose: 200.0 mg/kg/injection, schedule: Q01DX001 (ip), vehicle: saline 106 % of control | dose: 400.0 mg/kg/injection, schedule: Q01DX001 (ip), vehicle: saline 98 % of control

O=C(NCCCl)Nc1ccc(Cl)c(Cl)c1
inactive: [1] 101 % of control | [7] 94 % of control | [2] 95 % of control | [8] 98 % of control | dose: 400.0 mg/kg/injection, schedule: Q01DX001 (ip), vehicle: carboxymethylcellulose (CMC) 106 % of control
